Literature values, collected in patent publication US20120149888A1, “SYNTHESIS OF ARA-2'-O-METHYL-NUCLEOSIDES, CORRESPONDING PHOSPHORAMIDITES AND OLIGONUCLEOTIDES INCORPORATING NOVEL MODIFICATIONS FOR BIOLOGICAL APPLICATION IN THERAPEUCTICS, DIAGNOSTICS, G- TETRAD FORMING OLIGONUCLEOTIDES AND APTAMERS” (priority 2009, published 2012).
“And” between values parts separate entries of the source, which are not always exact repeats. Equal entries are not always repeated. “Also recorded” adds a separate entry of the source. Where two headings read alike, the source gives them in different places.

Columns and labels:
L1210 TG/R = settings: Thioguanine-resistant L1210 TG/R
[1] = test system: equilibrative NBMPR-sensitive nucleoside transporter (es); settings: growth-inhibitory concentrations
Ehrlich ascites (AZU 1) = settings: 6-Azauracil-resistant Ehrlich ascites (AZU 1)
[2] = test system: explants of intact rat colonic mucosa
[3] = test system: 11 human tumor xenografts; settings: 11 xenografts
[4] = test system: Ehrlich ascites resistant to 5-fluorodeoxyuridine (FUdR); settings: 5-Fluorodeoxyuridine-resistant Ehrlich ascites
AKR/r-AzCdR = settings: 5-Aza-2′-deoxycytidine-resistant AKR-r-AzCdr
[5] = polarographically, aprotic conditions, in the presence of alpha-lipoic acid
AKR/r-AzCR = settings: 5-Azacytidine-resistant AKR/r-AzCR
L1210/MP(III) = settings: 6-Mercaptopurine-resistant L1210/MP(III)
Ehrlich ascites (ETGR1) = settings: Thioguanine-resistant Ehrlich ascites (ETGR1)
Ehrlich ascites (EAC-R1) = settings: 6-Mercaptopurine-resistant Ehrlich ascites (EAC-R1)
[6] = test system: mouse and human tumor cells
[7] = test system: Lewis lung carcinoma cells; settings: in vivo
[8] = test system: nucleoside carrier-dependent transport; settings: in vitro
Raji leukemia = settings: mouse, in vivo
Raji Burkitt's lymphoma = settings: rat, in vivo
[9] = test system: seven tumors (three melanomas, one lung adenocarcinoma, one breast cancer, and two osteogenic sarcomas); settings: maximum tolerated dose, four weekly cycles of daily bolus i.v. injections for 5 days; lung carcinoma and all three malignant melanomas
L1210-ara-C = L1210-ara-C (Mihich et al., 1970)
[10] = test system: 13 human cancer cell lines; settings: for effect of tetrahydrouridine on antiproliferative activity: Cyd deaminase inhibitor
dCyd kinase = dCyd kinase (Homo sapiens, UniProt P27707)
dCyd kinase, sequence (P27707 whole entry): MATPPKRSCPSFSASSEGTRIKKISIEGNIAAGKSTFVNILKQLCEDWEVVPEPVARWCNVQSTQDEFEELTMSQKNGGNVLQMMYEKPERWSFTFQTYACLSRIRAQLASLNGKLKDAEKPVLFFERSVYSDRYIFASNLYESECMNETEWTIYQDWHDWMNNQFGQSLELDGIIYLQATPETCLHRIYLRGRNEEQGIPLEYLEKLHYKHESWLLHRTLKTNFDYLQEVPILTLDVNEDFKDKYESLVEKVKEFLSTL

human cancer xenograft = settings: in vivo
human tumors [11] = settings: once, 3 times and 5 times weekly for 2 or 4 weeks
mouse leukemia L1210 = settings: L1210 cells
[12] = test system: human nasopharyngeal KB cells
[13] = test system: 36 human tumor cell lines
human tumors [14] = test system: human tumors
L1210/CA = settings: 1β-D-Arabinofuranosylcytosine-resistant L1210/CA
Sarcoma 180 = settings: 6-Mercaptopurine-resistant Sarcoma 180
[15] = test system: human TT cell line derived from MTC; settings: 10, 25 and 50 microg/ml for 24 hours
[16] = test system: P388/CPT45 top1-deficient cells
[17] = test system: normal primary prostatic epithelial cells; settings: concentrations up to 100 nM
topoisomerase I (top1) = topoisomerase I (top1) (Homo sapiens, UniProt P11387); settings: gemcitabine incorporated immediately 3′ from a top1 cleavage site on the nonscissile strand
topoisomerase I (top1), sequence (P11387 whole entry, species assumed): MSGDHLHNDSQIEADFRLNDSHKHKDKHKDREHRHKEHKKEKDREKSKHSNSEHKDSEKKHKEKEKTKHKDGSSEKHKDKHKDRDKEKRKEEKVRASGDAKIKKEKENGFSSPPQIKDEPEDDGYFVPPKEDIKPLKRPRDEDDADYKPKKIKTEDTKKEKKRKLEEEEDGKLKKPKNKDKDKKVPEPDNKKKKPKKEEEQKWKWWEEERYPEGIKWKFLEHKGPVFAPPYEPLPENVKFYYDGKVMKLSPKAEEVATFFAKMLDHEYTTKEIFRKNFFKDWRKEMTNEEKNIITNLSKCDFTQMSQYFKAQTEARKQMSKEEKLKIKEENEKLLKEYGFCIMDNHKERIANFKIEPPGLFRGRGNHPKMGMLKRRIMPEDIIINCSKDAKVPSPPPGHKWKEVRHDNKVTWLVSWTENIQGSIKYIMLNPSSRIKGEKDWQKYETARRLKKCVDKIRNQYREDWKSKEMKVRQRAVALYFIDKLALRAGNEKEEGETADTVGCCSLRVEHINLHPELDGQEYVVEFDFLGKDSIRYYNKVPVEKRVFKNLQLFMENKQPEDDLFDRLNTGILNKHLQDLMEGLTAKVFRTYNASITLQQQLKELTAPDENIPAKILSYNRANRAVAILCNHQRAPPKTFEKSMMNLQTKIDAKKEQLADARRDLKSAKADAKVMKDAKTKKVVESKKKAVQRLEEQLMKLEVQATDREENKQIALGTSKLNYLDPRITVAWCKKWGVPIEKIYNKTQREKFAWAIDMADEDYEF

[18] = test system: bone marrow granulopoietic-macrophage progenitor cells; settings: granulopoietic-macrophagic progenitor cells
[19] = test system: drug-resistant P388 leukemias

## O=c1[nH]cc(F)c(=O)[nH]1 [5-fluorouracil]
L1210 TG/R
  Response to chemotherapeutic drugs: Cross-resistant: 5-Fluorouracil
[1]
  expression of es: increases
Ehrlich ascites (AZU 1)
  Response to chemotherapeutic drugs: collaterally sensitive: 5-Fluorouracil
Ehrlich ascites (AZU 1); listed as FU
  Response to chemotherapeutic drugs: collaterally sensitive: collaterally sensitive
[2]
  incorporation of tritiated TdR into DNA: not altered
  levels of tritiated deoxyuridine: reduced
[3]
  human tumors with potent inhibition: only one tumor
[4]
  Response to chemotherapeutic drugs: Cross-resistant: 5-Fluorouracil

## Nc1ncn([C@@H]2O[C@H](CO)[C@@H](O)[C@H]2O)c(=O)n1 [AzCR, 5-azacytidine]
AKR/r-AzCdR
  Response to chemotherapeutic drugs: Same as parent line: sensitive; also recorded: AKR-r-AzCdr AzCR
[5]
  index of potential carcinogenicity tg alpha: 0.295

## Nc1ncn([C@H]2C[C@H](O)[C@@H](CO)O2)c(=O)n1 [AzCdR, 5-aza-2′-deoxycytidine]
AKR/r-AzCR
  Response to chemotherapeutic drugs: Cross-resistant: cross-resistant; also recorded: AzCdR

## CSc1ncnc2c1ncn2[C@@H]1O[C@H](CO)[C@@H](O)[C@H]1O [Compound 6-MeMPR, 6-methyl thio-purine ribonucleoside]
L1210/MP(III)
  Response to chemotherapeutic drugs: Same as parent line: retained sensitivity and 6-MeMPR
Ehrlich ascites (ETGR1)
  Response to chemotherapeutic drugs: Cross-resistant: partially cross-resistant and 6-MeMPR^b
Ehrlich ascites (EAC-R1)
  Response to chemotherapeutic drugs: Cross-resistant: partially cross-resistant and 6-MeMPR^b

## [C-]#[N+][C@H]1[C@H](O)[C@@H](CO)O[C@H]1n1ccc(N)nc1=O [Compound 8, 2′-Deoxy-2′-isocyano-1-beta-D-arabinofuranosylcytosine]
[6]
  cytotoxicity: moderately cytotoxic
[7]
  tumor volume inhibition: only moderate tumor volume inhibition

## CCCCCCCC/C=C/CCCCCCCC(=O)OC[C@H]1O[C@@H](n2ccc(N)nc2=O)[C@@H](O)[C@@H]1O [Compound P-4055]
[8]
  cellular sensitivity in presence of nitrobenzylmercaptopurine riboside and dipyridamol: not
Raji leukemia
  animals that survived (>80 days): 8 of 10
Raji Burkitt's lymphoma
  long-time survivors (>70 days): three of five
[9]
  tumor response: partial or complete tumor regression

## CC(=NNC(=N)N)c1ccc(NC(=O)Nc2ccc(C(C)=NNC(=N)N)cc2)cc1 [DDUG, 4′,4′-diacetyldipenylurea bis(guanylhydrazone)]
L1210-ara-C
  Response to chemotherapeutic drugs: Cross-resistant: DDUG

## C=C1[C@H](n2ccc(N)nc2=O)O[C@H](CO)[C@H]1O [DMDC, 2′-deoxy-2′-methylidenecytidine]
[10]
  suppression of the antiproliferative activity of DMDC by dCyd: up to 150 fold
  effect of tetrahydrouridine on antiproliferative activity: reduced
dCyd kinase
  VmaxKm for dCyd kinase, lower than that for dCyd: 8 fold
Human cancer xenograft
  efficacy in tumors with higher levels of Cyd deaminase: highly effective
  efficacy in tumors with lower levels of Cyd deaminase: only slight activity

## C#C[C@@]1(O)[C@@H](CO)O[C@@H](n2ccc(N)nc2=O)[C@@H]1O [ECyd, 1-(3-C-ethynyl-beta-D-ribo-pentofuranosyl)cytosine]
Human tumors [11]
  antitumor activity: strong antitumor activity without serious toxicity
Mouse leukemia L1210
  IC50: 16 nM
[12]
  IC50: 28 nM
[13]
  1050 values: nanomolar to micromolar range
[3]
  human tumors with potent inhibition: 9 of 11
Human tumors [14]; 24 and 72 h exposures
  cytotoxicity: sufficiently potent cytotoxicity
Human tumors [14]; 4 h exposure
  cytotoxicity: fairly potent cytotoxicity

## CC(C=NNC(=N)N)=NNC(=N)N [MGGH, methylglyoxal bis(guanylhydrazone)]
L1210-ara-C
  Response to chemotherapeutic drugs: Same as parent line: MGGH
L1210/CA
  Response to chemotherapeutic drugs: Same as parent line: MGGH

## Nc1nc(N)c2ccc(CNc3ccc(C(=O)N[C@@H](CC(=O)O)C(=O)O)cc3)cc2n1 [Quinaspar]
Sarcoma 180
  Response to chemotherapeutic drugs: collaterally sensitive: Quinaspar

## Nc1ccn([C@@H]2O[C@H](CO)[C@@H](O)C2(F)F)c(=O)n1 [gemcitabine, 2′,2′difluoro-2′deoxycytidine]
Advanced sarcomas; 1250 mg/m(2) i.v. weekly × three, q28 days
  overall response rate: 3%
Advanced sarcomas; in vivo
  median time-to progression: 2.1 months
  patients who discontinued treatment due to toxicity/refusal: 14%
Advanced sarcomas; leukopenia and thrombocytopenia
  hematologic toxicities > or = Grade 3, patients: 32%
[15]
  influence on proliferative activity of TT cells: concentration-dependent inhibitory influence
Ovarian cancer; previously treated patients
  response rate with the drug alone: around 13%
Ovarian cancer; previously untreated patients with poor prognostic features
  response rate for the drug alone: 24%
[16]
  resistance of P388/CPT45 top1-deficient cells to gemcitabine: 5 fold
[17]
  inhibitory effects in normal primary prostatic epithelial cells: no inhibitory effects
[10]
  effect of tetrahydrouridine on antiproliferative activity: increased to some extent
Topoisomerase I (top1)
  top1-mediated DNA cleavage: enhanced
[18]
  gemcitabine concentration inhibiting colony formation by two thirds: 9 nM
LNCaP, PC-3 and DU-145; LNCaP, PC-3, DU-145
  dFdC concentration of maximal inhibition of proliferation and colony formation: 30 nM
LNCaP, PC-3 and DU-145; prostatic tumor cells
  gemcitabine concentration inhibiting colony formation by two thirds: about 3.5 nM
Human cancer xenograft
  efficacy in tumors with higher levels of Cyd deaminase: only slightly active
[19]; P388 resistant to 1-beta-D-arabinofuranosylcytosine
  cross resistance to gemcitabine: cross resistant
[19]; P388 resistant to vincristine, cyclophosphamide, melphalan, cisplatin, methotrexate
  cross resistance to gemcitabine: not cross resistant
[19]; multidrug-resistant P388 (resistant to doxorubicin or etoposide)
  cross resistance to gemcitabine: no cross resistance
